Source: patent publication US20120122860A1, “SOLID FORMS OF SULFONAMIDES AND AMINO ACIDS” (Plexxikon, Inc., priority 2009, published 2012)

Columns and labels:
B-Raf = B-Raf (Homo sapiens, UniProt P15056); assay: Kinase activity assay, B-Raf; format: biochemical; settings: read-out: activity toward kinase B-Raf, IC50
TEC = target: T1, TEC (Homo sapiens, UniProt P42680); assay: Kinase activity assay, TEC
T1 sequence (P42680 1-631): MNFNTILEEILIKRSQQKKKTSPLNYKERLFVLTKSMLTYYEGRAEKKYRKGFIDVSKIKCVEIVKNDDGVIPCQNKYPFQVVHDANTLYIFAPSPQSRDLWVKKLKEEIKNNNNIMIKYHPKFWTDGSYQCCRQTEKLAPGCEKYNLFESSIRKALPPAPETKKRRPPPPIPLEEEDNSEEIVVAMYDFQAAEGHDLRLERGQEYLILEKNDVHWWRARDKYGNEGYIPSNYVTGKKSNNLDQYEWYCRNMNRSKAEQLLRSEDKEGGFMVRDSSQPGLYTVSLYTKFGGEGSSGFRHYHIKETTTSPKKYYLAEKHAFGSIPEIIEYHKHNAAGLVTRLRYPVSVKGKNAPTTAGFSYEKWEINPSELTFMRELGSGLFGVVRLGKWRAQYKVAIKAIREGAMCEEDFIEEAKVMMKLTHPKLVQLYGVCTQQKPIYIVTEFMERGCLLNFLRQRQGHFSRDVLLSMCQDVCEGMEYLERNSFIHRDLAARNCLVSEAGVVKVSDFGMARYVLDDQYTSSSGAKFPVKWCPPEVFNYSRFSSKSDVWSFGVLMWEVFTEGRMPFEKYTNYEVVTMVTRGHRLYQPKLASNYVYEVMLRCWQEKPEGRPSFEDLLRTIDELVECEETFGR

B-Raf V600E = B-Raf V600E (Homo sapiens, UniProt P15056, V600E); assay: Kinase activity assay, B-Raf V600E; format: biochemical; settings: read-out: activity toward kinase B-Raf V600E, IC50
Src = Src (Homo sapiens, UniProt P12931); assay: Kinase activity assay, Src
C-Raf = C-Raf (Homo sapiens, UniProt P04049); assay: Kinase activity assay, C-Raf
Kit = Kit (Homo sapiens, UniProt P10721); assay: Kinase activity assay, Kit
Kdr = Kdr (Homo sapiens, UniProt P35968); assay: Kinase activity assay, Kdr
Fms = Fms (Homo sapiens, UniProt P07333); assay: Kinase activity assay, Fms

Measured: IC50

Sequence of Src (P12931 whole entry): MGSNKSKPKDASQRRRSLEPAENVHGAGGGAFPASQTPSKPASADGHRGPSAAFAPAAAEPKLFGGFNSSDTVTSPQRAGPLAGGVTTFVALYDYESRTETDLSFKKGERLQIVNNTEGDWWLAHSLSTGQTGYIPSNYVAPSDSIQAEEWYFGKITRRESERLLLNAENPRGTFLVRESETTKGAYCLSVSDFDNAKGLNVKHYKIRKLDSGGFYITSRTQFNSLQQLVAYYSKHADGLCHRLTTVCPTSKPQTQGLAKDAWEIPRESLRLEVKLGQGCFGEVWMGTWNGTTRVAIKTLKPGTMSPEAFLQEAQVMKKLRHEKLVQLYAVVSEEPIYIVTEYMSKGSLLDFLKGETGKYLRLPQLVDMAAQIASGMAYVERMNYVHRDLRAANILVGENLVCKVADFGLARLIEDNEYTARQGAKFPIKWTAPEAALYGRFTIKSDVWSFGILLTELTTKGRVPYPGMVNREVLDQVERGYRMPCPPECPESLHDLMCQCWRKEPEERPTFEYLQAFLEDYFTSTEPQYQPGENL
Sequence of B-Raf (P15056 whole entry): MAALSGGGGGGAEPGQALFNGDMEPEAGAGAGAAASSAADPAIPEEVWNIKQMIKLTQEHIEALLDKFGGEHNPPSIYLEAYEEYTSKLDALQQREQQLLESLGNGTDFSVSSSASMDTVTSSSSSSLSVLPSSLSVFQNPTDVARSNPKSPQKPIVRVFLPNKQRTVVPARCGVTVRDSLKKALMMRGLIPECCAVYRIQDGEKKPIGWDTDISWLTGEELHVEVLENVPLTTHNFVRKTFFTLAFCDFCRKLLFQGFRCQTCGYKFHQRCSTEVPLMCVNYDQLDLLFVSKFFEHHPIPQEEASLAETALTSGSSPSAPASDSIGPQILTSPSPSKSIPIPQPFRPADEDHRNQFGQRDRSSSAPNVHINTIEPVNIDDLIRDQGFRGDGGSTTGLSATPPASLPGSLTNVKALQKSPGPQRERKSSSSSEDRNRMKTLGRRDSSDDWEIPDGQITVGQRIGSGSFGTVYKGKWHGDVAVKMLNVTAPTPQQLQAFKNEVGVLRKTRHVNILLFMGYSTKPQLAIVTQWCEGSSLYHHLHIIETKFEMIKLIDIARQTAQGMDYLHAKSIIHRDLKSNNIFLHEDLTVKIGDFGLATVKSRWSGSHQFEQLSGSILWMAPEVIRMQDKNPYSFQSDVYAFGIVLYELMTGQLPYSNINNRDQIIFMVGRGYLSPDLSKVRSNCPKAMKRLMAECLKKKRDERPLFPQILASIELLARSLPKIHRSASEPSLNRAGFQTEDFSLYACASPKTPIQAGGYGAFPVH
Sequence of Kit (P10721 26-976): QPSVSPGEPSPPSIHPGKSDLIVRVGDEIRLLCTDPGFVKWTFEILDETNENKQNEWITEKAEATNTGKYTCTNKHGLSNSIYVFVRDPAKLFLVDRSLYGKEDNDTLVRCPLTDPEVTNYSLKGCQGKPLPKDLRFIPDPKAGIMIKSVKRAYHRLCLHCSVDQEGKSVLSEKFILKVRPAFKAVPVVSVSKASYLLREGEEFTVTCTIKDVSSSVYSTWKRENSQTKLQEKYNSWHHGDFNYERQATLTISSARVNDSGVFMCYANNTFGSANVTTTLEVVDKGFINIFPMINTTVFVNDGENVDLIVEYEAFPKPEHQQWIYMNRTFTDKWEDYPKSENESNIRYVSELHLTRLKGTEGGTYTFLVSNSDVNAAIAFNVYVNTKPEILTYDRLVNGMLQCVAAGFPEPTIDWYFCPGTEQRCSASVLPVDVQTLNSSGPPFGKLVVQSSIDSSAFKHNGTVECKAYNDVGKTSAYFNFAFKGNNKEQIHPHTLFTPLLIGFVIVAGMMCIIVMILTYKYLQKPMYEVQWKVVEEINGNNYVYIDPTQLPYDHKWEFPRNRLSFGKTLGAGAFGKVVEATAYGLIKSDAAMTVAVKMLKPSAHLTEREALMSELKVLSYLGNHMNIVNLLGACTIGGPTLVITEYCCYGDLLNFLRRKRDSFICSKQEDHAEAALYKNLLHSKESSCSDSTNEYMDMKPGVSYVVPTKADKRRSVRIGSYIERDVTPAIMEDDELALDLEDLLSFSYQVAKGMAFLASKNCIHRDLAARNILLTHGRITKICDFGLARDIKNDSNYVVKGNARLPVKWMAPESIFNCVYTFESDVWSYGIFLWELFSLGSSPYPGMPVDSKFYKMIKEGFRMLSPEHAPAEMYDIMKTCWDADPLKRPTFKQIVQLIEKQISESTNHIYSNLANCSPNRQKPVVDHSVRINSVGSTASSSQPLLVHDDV
Sequence of Fms (P07333 20-972): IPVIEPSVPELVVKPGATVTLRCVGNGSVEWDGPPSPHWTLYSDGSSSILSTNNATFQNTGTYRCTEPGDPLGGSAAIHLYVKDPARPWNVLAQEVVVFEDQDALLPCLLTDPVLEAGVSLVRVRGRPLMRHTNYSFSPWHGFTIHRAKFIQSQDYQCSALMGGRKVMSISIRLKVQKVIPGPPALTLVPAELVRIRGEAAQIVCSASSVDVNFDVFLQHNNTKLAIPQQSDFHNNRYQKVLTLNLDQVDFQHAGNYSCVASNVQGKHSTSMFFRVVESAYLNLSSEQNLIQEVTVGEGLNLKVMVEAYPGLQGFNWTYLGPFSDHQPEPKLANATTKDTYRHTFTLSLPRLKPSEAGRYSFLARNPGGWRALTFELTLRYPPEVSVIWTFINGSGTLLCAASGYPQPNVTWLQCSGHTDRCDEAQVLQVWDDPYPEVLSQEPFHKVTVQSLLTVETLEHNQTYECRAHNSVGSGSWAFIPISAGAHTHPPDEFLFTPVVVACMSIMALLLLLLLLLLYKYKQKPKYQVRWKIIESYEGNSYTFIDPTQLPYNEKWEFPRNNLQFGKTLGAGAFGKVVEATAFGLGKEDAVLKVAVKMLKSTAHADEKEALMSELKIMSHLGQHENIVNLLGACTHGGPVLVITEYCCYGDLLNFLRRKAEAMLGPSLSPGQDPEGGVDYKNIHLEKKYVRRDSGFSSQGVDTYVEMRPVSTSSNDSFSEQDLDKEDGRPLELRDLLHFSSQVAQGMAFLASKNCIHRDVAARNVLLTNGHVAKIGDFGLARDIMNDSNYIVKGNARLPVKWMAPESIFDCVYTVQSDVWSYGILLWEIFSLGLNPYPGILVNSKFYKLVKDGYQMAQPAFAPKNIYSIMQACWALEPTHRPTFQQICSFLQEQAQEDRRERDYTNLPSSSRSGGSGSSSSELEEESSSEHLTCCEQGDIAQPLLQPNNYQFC
Sequence of B-Raf V600E (P15056 whole entry V600E): as the sequence (P15056 whole entry) above, with V600E counted along it
Sequence of Kdr (P35968 20-1356): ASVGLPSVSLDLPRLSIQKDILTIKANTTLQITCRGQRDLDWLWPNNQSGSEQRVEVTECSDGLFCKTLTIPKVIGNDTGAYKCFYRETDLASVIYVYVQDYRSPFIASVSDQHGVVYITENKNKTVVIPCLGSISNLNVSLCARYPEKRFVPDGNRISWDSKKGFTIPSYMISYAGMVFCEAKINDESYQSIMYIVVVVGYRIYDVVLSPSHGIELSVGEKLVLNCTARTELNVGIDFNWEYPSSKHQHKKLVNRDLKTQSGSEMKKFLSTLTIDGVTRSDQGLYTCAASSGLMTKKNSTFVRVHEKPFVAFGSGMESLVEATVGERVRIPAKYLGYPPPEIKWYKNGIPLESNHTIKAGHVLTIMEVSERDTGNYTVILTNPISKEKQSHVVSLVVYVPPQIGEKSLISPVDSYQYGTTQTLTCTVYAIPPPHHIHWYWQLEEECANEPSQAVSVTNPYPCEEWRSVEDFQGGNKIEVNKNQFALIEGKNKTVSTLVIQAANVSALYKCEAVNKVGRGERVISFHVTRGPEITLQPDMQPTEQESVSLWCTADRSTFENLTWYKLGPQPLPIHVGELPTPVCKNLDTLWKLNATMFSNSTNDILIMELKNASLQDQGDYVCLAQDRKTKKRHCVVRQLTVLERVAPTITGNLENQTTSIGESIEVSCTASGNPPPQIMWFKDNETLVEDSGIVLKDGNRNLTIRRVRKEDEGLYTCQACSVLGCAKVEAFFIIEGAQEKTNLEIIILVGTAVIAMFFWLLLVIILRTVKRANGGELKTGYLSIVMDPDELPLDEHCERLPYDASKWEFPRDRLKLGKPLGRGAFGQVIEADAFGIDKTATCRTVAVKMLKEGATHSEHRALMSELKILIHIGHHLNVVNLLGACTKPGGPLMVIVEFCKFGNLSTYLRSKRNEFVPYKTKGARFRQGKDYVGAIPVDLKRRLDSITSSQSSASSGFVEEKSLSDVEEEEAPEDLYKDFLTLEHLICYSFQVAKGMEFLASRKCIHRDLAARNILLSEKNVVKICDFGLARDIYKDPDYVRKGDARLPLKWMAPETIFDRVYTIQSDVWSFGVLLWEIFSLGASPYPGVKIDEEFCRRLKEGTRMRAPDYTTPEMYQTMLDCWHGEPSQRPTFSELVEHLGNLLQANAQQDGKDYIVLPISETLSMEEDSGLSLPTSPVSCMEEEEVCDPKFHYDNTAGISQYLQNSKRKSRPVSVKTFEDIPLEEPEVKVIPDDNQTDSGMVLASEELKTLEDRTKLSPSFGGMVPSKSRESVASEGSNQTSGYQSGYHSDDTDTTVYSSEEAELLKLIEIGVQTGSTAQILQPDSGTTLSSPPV

COc1ccnc2[nH]cc(C(=O)c3c(F)ccc(NS(=O)(=O)c4ccc(F)cc4)c3F)c12 [P-2027, N-[2,4-Difluoro-3-(4-methoxy-1H-pyrrolo[2,3-b]pyridine-3-carbonyl)-phenyl]-4-fluoro-benzenesulfonamide]
not listed: Fms
≤ 10 µM: all other assays above

N#Cc1cnc2[nH]cc(C(=O)c3c(F)ccc(NS(=O)(=O)c4cccnc4)c3F)c2c1 [P-2072, Pyridine-3-sulfonic acid [3-(5-cyano-1H-pyrrolo[2,3-b]pyridine-3-carbonyl)-2,4-difluoro-phenyl]-amide]
≤ 10 µM: B-Raf | TEC | B-Raf V600E | C-Raf

O=C(c1cc(NS(=O)(=O)c2cccc(Cl)c2)ccc1F)c1c[nH]c2ncc(Cl)cc12 [P-2111, 3-Chloro-N-[3-(5-chloro-1H-pyrrolo[2,3-b]pyridine-3-carbonyl)-4-fluoro-phenyl]-benzenesulfonamide]
≤ 10 µM: TEC | B-Raf V600E | Fms | Kit | Kdr

O=C(c1cc(NS(=O)(=O)c2cccc(Cl)c2)ccc1F)c1c[nH]c2ncccc12 [P-2118, 3-Chloro-N-[4-fluoro-3-(1H-pyrrolo[2,3-b]pyridine-3-carbonyl)-phenyl]-benzenesulfonamide]
≤ 10 µM: TEC | Fms | Kit | Kdr

Cn1cc(-c2cnc3[nH]cc(C(=O)c4cccc(NS(=O)(=O)c5ccc(OC(F)(F)F)cc5)c4)c3c2)cn1 [P-2132, N-{3-[5-(1-Methyl-1H-pyrazol-4-yl)-1H-pyrrolo[2,3-b]pyridine-3-carbonyl]-phenyl}-4-trifluoromethoxy-benzenesulfonamide]
≤ 10 µM: TEC | B-Raf V600E | Fms | Kit | Kdr

Cn1cc(-c2cnc3[nH]cc(C(=O)c4cccc(NS(=O)(=O)c5cccc(OC(F)(F)F)c5)c4)c3c2)cn1 [P-2133, N-{3-[5-(1-Methyl-1H-pyrazol-4-yl)-1H-pyrrolo[2,3-b]pyridine-3-carbonyl]-phenyl}-3-trifluoromethoxy-benzenesulfonamide]
≤ 10 µM: TEC | B-Raf V600E | Fms | Kit | Kdr

CCCS(=O)(=O)Nc1ccc(F)c(C(=O)c2c[nH]c3ncc(-c4ccc(O)cc4)cc23)c1F [P-2198, Propane-1-sulfonic acid {2,4-difluoro-3-[5-(4-hydroxy-phenyl)-1H-pyrrolo[2,3-b]pyridine-3-carbonyl]-phenyl}-amide]
≤ 10 µM: B-Raf | TEC | B-Raf V600E | Fms

CCCS(=O)(=O)Nc1ccc(F)c(C(=O)c2c[nH]c3ncc(-c4ccccc4Cl)cc23)c1F [P-2212, Propane-1-sulfonic acid {3-[5-(2-chloro-phenyl)-1H-pyrrolo[2,3-b]pyridine-3-carbonyl]-2,4-difluoro-phenyl}-amide]
≤ 10 µM: B-Raf | TEC | B-Raf V600E | Fms | Kdr

CC(C)S(=O)(=O)Nc1ccc(F)c(C(=O)c2c[nH]c3ncc(C#N)cc23)c1F [P-2282, Propane-2-sulfonic acid [3-(5-cyano-1H-pyrrolo[2,3-b]pyridine-3-carbonyl)-2,4-difluoro-phenyl]-amide]
≤ 10 µM: B-Raf | TEC | B-Raf V600E | C-Raf | Kit

COc1ccnc2[nH]cc(C(=O)c3c(F)ccc(NS(=O)(=O)CC(C)C)c3F)c12 [P-2306, 2-Methyl-propane-1-sulfonic acid [2,4-difluoro-3-(4-methoxy-1H-pyrrolo[2,3-b]pyridine-3-carbonyl)-phenyl]-amide]
not listed: Kdr | Fms
≤ 10 µM: all other assays above

CC(C)CS(=O)(=O)Nc1ccc(F)c(C(=O)c2c[nH]c3ncc(C#N)cc23)c1F [P-2307, 2-Methyl-propane-1-sulfonic acid [3-(5-cyano-1H-pyrrolo[2,3-b]pyridine-3-carbonyl)-2,4-difluoro-phenyl]-amide]
≤ 10 µM: B-Raf | TEC | B-Raf V600E | C-Raf | Kit

CCC(C)S(=O)(=O)Nc1ccc(F)c(C(=O)c2c[nH]c3nccc(OC)c23)c1F (stereo not drawn) [P-2313, Butane-2-sulfonic acid [2,4-difluoro-3-(4-methoxy-1H-pyrrolo[2,3-b]pyridine-3-carbonyl)-phenyl]-amide]
not listed: Kit | Fms
≤ 10 µM: all other assays above

COc1ccnc2[nH]cc(C(=O)c3c(F)ccc(NS(=O)(=O)CCC(F)(F)F)c3F)c12 [P-2330, 3,3,3-Trifluoro-propane-1-sulfonic acid [2,4-difluoro-3-(4-methoxy-1H-pyrrolo[2,3-b]pyridine-3-carbonyl)-phenyl]-amide]
≤ 10 µM: B-Raf | TEC | B-Raf V600E | Src | C-Raf

O=C(c1c(F)ccc(NS(=O)(=O)C2CCCC2)c1F)c1c[nH]c2ncc(Cl)cc12 [P-2358, Cyclopentanesulfonic acid [3-(5-chloro-1H-pyrrolo[2,3-b]pyridine-3-carbonyl)-2,4-difluoro-phenyl]-amide]
not listed: Fms
≤ 10 µM: all other assays above

N#Cc1cnc2[nH]cc(C(=O)c3c(F)ccc(NS(=O)(=O)C4CCCC4)c3F)c2c1 [P-2359, Cyclopentanesulfonic acid [3-(5-cyano-1H-pyrrolo[2,3-b]pyridine-3-carbonyl)-2,4-difluoro-phenyl]-amide]
not listed: Fms
≤ 10 µM: all other assays above

COc1ccnc2[nH]cc(C(=O)c3c(F)ccc(NS(=O)(=O)C4CCCCC4)c3F)c12 [P-2361, Cyclohexanesulfonic acid [2,4-difluoro-3-(4-methoxy-1H-pyrrolo[2,3-b]pyridine-3-carbonyl)-phenyl]-amide]
not listed: Kdr | Fms
≤ 10 µM: all other assays above

COc1ccnc2[nH]cc(C(=O)c3c(F)ccc(NS(=O)(=O)N(C)C)c3F)c12 [P-2376, N,N-dimethylamino-sulfonic acid [2,4-difluoro-3-(4-methoxy-1H-pyrrolo[2,3-b]pyridine-3-carbonyl)-phenyl]-amide]
not listed: Kit | Fms
≤ 10 µM: all other assays above

COc1ccnc2[nH]cc(C(=O)c3c(F)ccc(NS(=O)(=O)N4CCCC4)c3F)c12 [P-2377, Pyrrolidine-1-sulfonic acid [2,4-difluoro-3-(4-methoxy-1H-pyrrolo[2,3-b]pyridine-3-carbonyl)-phenyl]-amide]
not listed: Kit | Fms
≤ 10 µM: all other assays above

CCN(CC)S(=O)(=O)Nc1ccc(F)c(C(=O)c2c[nH]c3nccc(OC)c23)c1F [P-2378, N,N-diethylamino-sulfonic acid [2,4-difluoro-3-(4-methoxy-1H-pyrrolo[2,3-b]pyridine-3-carbonyl)-phenyl]-amide]
≤ 10 µM: TEC | B-Raf V600E | Src | Kdr

N#Cc1cnc2[nH]cc(C(=O)c3cccc(NS(=O)(=O)C4CCCC4)c3F)c2c1 [P-2417, Cyclopentanesulfonic acid [3-(5-cyano-1H-pyrrolo[2,3-b]pyridine-3-carbonyl)-2-fluoro-phenyl]-amide]
≤ 10 µM: B-Raf | TEC | B-Raf V600E | C-Raf | Kdr

O=C(c1cc(NS(=O)(=O)C2CCCCC2)ccc1F)c1c[nH]c2ncccc12 [P-2441, Cyclohexanesulfonic acid [4-fluoro-3-(1H-pyrrolo[2,3-b]pyridine-3-carbonyl)-phenyl]-amide]
≤ 10 µM: TEC | Fms | Kit

O=C(c1cc(NS(=O)(=O)C2CCCC2)ccc1F)c1c[nH]c2ncccc12 [P-2442, Cyclopentanesulfonic acid [4-fluoro-3-(1H-pyrrolo[2,3-b]pyridine-3-carbonyl)-phenyl]-amide]
≤ 10 µM: TEC | B-Raf V600E | Fms | Kdr
